Assay results published in patent EP4603105A1, “PHARMACEUTICAL COMPOSITION CONTAINING CYCLIC COMPOUND HAVING SELECTIVE KRAS INHIBITORY EFFECT AGAINST HRAS AND NRAS” (CHUGAI SEIYAKU KABUSHIKI KAISHA, priority 2022, dated 2024).
Where a SMILES comes first, the peptide text is derived from it. Bridges are numbered along the chain shown (N, C = ends). [ ]: non-standard residue; d: D form. The star is where a group is joined. hPhe(3,5-F2-4-CF3) = N[C@@H](CCc1cc(F)c(C(F)(F)F)c(F)c1)C(=O)O; hPhe(3-Cl-4-CF3) = N[C@@H](CCc1ccc(C(F)(F)F)c(Cl)c1)C(=O)O; NPrPhe(4-CF3) = CCCN[C@@H](Cc1ccc(C(F)(F)F)cc1)C(=O)O; NEtPhe(4-CF3) = CCN[C@@H](Cc1ccc(C(F)(F)F)cc1)C(=O)O; NMeGly(cPent) = CN[C@H](C(=O)O)C1CCCC1; NMeD = CN[C@@H](CC(=O)O)C(=O)O; NMeL = CN[C@@H](CC(C)C)C(=O)O; αMeS = C[C@](N)(CO)C(=O)O; Morpholide = C1CN(*)CCO1; Ac5c = NC1(C(=O)O)CCCC1; Aze = O=C(O)[C@@H]1CCN1; Abu = CC[C@H](N)C(=O)O; Aib = CC(C)(N)C(=O)O; Sar = CNCC(=O)O; Allyl = C=CC*

What was measured:
[1] = target: GDP-bound KRAS wild-type protein (Homo sapiens, UniProt P01116); test: Binding to KRAS by surface plasmon resonance (SPR), dissociation constant KD
Sequence of GDP-bound KRAS wild-type protein (P01116 1-188 isoform P01116-2): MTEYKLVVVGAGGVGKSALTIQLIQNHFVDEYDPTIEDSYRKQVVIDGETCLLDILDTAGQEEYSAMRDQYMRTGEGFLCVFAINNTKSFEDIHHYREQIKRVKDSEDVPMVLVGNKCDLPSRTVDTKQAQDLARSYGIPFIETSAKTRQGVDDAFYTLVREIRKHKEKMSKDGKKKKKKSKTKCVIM
Method in brief: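 GDP-loaded biotinylated Avi-tag RAS proteins (E. coli-expressed) captured on a Biotin CAPture chip at ~100–300 RU; single-cycle kinetics at 30°C, 100 µL/min, 75 s injections of rising compound concentrations. HBS pH 7.4 running buffer with 1 mM DTT, 10 mM MgCl2, 10 µM GDP, 4% DMSO. KD from 1:1 binding fit.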

[2] = target: GDP-bound NRAS wild-type protein (Homo sapiens, UniProt P01111); test: Binding to NRAS by surface plasmon resonance (SPR), KD and KD ratio to KRAS
Sequence of GDP-bound NRAS wild-type protein (P01111 whole entry): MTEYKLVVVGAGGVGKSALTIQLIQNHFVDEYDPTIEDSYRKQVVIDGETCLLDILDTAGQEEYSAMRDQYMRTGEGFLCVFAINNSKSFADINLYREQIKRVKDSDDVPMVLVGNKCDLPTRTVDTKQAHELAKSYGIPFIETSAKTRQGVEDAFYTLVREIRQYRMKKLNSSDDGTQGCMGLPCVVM
Method in brief: (§1)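 Measured at 30°C: SPR with GDP-loaded, E. coli-expressed biotin-Avi RAS captured (~100–300 RU), ascending 75 s compound injections, HBS pH 7.4 with GDP, MgCl2, 4% DMSO. KD from 1:1 fit.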

HRAS wild-type protein = HRAS wild-type protein (Homo sapiens, UniProt P01112); test: Binding to HRAS by surface plasmon resonance (SPR), KD and KD ratio to KRAS
Sequence of HRAS wild-type protein (P01112 whole entry): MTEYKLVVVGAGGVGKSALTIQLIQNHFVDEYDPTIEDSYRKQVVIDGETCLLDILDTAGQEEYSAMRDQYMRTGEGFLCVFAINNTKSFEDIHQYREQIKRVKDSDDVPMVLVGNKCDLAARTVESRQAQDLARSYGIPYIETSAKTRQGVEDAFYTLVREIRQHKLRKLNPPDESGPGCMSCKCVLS
Method in brief: as §1

[3] = test system: human lung cancer strain NCI-H441; type: cell-based
Method in brief: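 Signal came from […] measured per well once the reagent was added. Beforehand, cells were cultured at 37°C and 5% carbon dioxide on a compound series serially diluted in dimethyl sulfoxide.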

[4] = ratio of KD for GDP-bound NRAS wild-type protein to KD for KRAS
[5] = ratio of KD for HRAS wild-type protein to KD for KRAS
[6] = Single Cycle Kinetics, 1:1 binding model

Compound	Kd ([1]; 1:1 binding model) [nM]	NRAS /KRAS [2, 4]	HRAS /KRAS (HRAS wild-type protein; [5])	IC50 [3] [nM]	Kd [1, 6] [nM]	NRAS /KRAS ([2]; ratio of KD value for GDP-bound NRAS wild-type protein to KD value for KRAS (SPR))	HRAS /KRAS (HRAS wild-type protein; ratio of KD value for HRAS wild-type protein to KD value for KRAS (SPR))	Kd ([1]; Single Cycle Kinetics) [nM]	NRAS /KRAS ([2]; ratio of the KD value with respect to GDP-bound NRAS wild-type protein to the KD value with respect to KRAS)	HRAS /KRAS (HRAS wild-type protein; ratio of the KD value with respect to HRAS wild-type protein to the KD value with respect to KRAS)
CCCN1C(=O)CN(C)C(=O)[C@@H]2CCN2C(=O)[C@H](CC)NC(=O)[C@H](CC(C)C)N(C)C(=O)C[C@@H](C(=O)N2CCOCC2)N(C)C(=O)[C@H](C2CCCC2)N(C)C(=O)C2(CCCC2)NC(=O)[C@@H]2CCCN2C(=O)[C@H](CCc2ccc(C(F)(F)F)c(Cl)c2)NC(=O)CN(C)C(=O)[C@@H]1Cc1ccc(C(F)(F)F)cc1 [PP0303] ([NMeL][Abu][Aze][Sar][NPrPhe(4-CF3)][Sar][hPhe(3-Cl-4-CF3)]P[Ac5c][NMeGly(cPent)][NMeD]-Morpholide; lactam N-11)	4	B (a compound having 3 or more and less than 10 is denoted as B)	B (a compound having 3 or more and less than 10 is denoted as B)	349						
CCO[C@@H]1C[C@H]2C(=O)NC3(CCC3)C(=O)N(C)[C@@H](C3CCCC3)C(=O)N(C)[C@H](C(=O)N(C)CC)CC(=O)N(C)[C@@H](CC3CCC3)C(=O)N[C@@H]([C@@H](C)CC)C(=O)N(C)CC(=O)N(C)[C@H]3C/C=C\CCN(C3=O)[C@@H](Cc3ccc(C(F)(F)F)cc3)C(=O)N(C)CC(=O)N[C@@H](CCc3cc(F)c(C(F)(F)F)c(F)c3)C(=O)N2C1 [PP1667]				2	0.081	A (a compound having 10 or more and less than 20 is denoted as A)	A (a compound having 10 or more and less than 20 is denoted as A)			
CCCC[C@H]1C(=O)N[C@@H]([C@@H](C)CC)C(=O)N(C)CC(=O)N(C)[C@H]2C/C=C\CCN(C2=O)[C@@H](Cc2ccc(C(F)(F)F)cc2)C(=O)N(C)CC(=O)N[C@@H](CCc2ccc(C(F)(F)F)cc2Cl)C(=O)N2C[C@H](F)C[C@H]2C(=O)NC2(CC(C)(C)C2)C(=O)N(C)[C@@H](C2CCC2)C(=O)N(C)[C@H](C(=O)N(C)C)CC(=O)N1C [PP3124]	1.1	A (a compound having 10 or more and less than 20 is denoted as A)	A (a compound having 10 or more and less than 20 is denoted as A)	39						
CC[C@H](C)[C@@H]1NC(=O)[C@H](CC2CC2)N(C)C(=O)C[C@@H](C(=O)N(C)CC)N(C)C(=O)[C@H](C2CCCC2)N(C)C(=O)C2(CC(C)(C)C2)NC(=O)[C@@H]2C[C@@H](F)CN2C(=O)[C@H](CCc2cc(F)c(C(F)(F)F)c(F)c2)NC(=O)CN(C)C(=O)[C@H](Cc2ccc(C)cc2)N2CC/C=C\C[C@@H](C2=O)N(C)C(=O)CN(C)C1=O [PP2802]	0.034	AA (a compound having 20 or more is denoted as AA)	A (a compound having 10 or more and less than 20 is denoted as A)	5.5						
C=CCOC[C@]1(C)NC(=O)[C@@H]2CCCN2C(=O)[C@H](CCc2cc(F)c(C(F)(F)F)c(F)c2)NC(=O)CN(C)C(=O)[C@H](Cc2ccc(C(F)(F)F)cc2)N(CCC)C(=O)CN(C)C(=O)CN(C)C(=O)[C@H]([C@@H](C)CC)NC(=O)[C@H](CC(C)C)N(C)C(=O)C[C@@H](C(=O)N2CCOCC2)N(C)C(=O)[C@H](C2CCCC2)N(C)C1=O [PP0763] ([NMeL]I[Sar][Sar][NPrPhe(4-CF3)][Sar][hPhe(3,5-F2-4-CF3)]P[αMeS](Allyl)[NMeGly(cPent)][NMeD]-Morpholide; lactam N-11)		B (a compound having 3 or more and less than 10 is denoted as B)	B (a compound having 3 or more and less than 10 is denoted as B)	83				0.98		
CC[C@H](C)[C@@H]1NC(=O)[C@H](COC)NC(=O)C[C@@H](C(=O)N(C)CC)N(C)C(=O)[C@H](C2CCCC2)N(C)C(=O)C2(CC(C)(C)C2)NC(=O)[C@@H]2C[C@@H](F)CN2C(=O)[C@H](CCc2ccc(C(F)(F)F)c(OC)c2)NC(=O)CN(C)C(=O)[C@H](Cc2ccc(C(F)(F)F)cc2)N2CC/C=C\C[C@@H](C2=O)N(C)C(=O)CN(C)C1=O [PP3137]	0.084	A (a compound having 10 or more and less than 20 is denoted as A)	A (a compound having 10 or more and less than 20 is denoted as A)	23						
CCC[C@H]1C(=O)N[C@@H]([C@@H](C)CC)C(=O)N(C)CC(=O)N(C)[C@H]2C/C=C\CCN(C2=O)[C@@H](Cc2ccc(C)cc2)C(=O)N(C)CC(=O)N[C@@H](CCc2ccc3ccn(C)c3c2)C(=O)N2C[C@H](OCC)C[C@H]2C(=O)NC2(CC(C)(C)C2)C(=O)N(C)[C@@H](C(CC)CC)C(=O)N(C)[C@H](C(=O)N(C)C)CC(=O)N1C [PP2914]	14	AA (a compound having 20 or more is denoted as AA)	A (a compound having 10 or more and less than 20 is denoted as A)	311						
CC[C@H](C)[C@@H]1NC(=O)[C@H](CC(C)C)N(C)C(=O)C[C@@H](C(=O)N2CCOCC2)N(C)C(=O)[C@H](C2CCCC2)N(C)C(=O)C(C)(C)NC(=O)[C@@H]2CCCN2C(=O)[C@H](CCc2ccc(C(F)(F)F)c(Cl)c2)NC(=O)CN(C)C(=O)[C@H](Cc2ccc(C(F)(F)F)cc2)N(CC)C(=O)CN(C)C(=O)CN(C)C1=O [PP0235] ([NMeL]I[Sar][Sar][NEtPhe(4-CF3)][Sar][hPhe(3-Cl-4-CF3)]P[Aib][NMeGly(cPent)][NMeD]-Morpholide; lactam N-11)	0.15	B (a compound having 3 or more and less than 10 is denoted as B)	C (A compound having a KD ratio of 0.1 or more and less than 3 is denoted as C)	4.5						
C#CC[C@H]1C(=O)N[C@@H]([C@@H](C)CC)C(=O)N(C)CC(=O)N(C)[C@H]2C/C=C\CCN(C2=O)[C@@H](Cc2ccc(C(F)(F)F)cc2)C(=O)N(C)CC(=O)N[C@@H](CCc2ccc(C(F)(F)F)c(OC)c2)C(=O)N2C[C@H](F)C[C@H]2C(=O)NC2(CC(C)(C)C2)C(=O)N(C)[C@@H](CCC=C)C(=O)N(C)[C@H](C(=O)N(C)C)CC(=O)N1C [PP3126]	0.81	AA (a compound having 20 or more is denoted as AA)	A (a compound having 10 or more and less than 20 is denoted as A)	116						
C#CC[C@H]1C(=O)N[C@@H]([C@@H](C)CC)C(=O)N(C)CC(=O)N(C)[C@H]2C/C=C\CCN(C2=O)[C@@H](Cc2ccc(C(F)(F)F)cc2)C(=O)N(C)CC(=O)N[C@@H](CCc2ccc(C(F)(F)F)c(OC)c2)C(=O)N2C[C@H](OCC)C[C@H]2C(=O)NC2(CCCC2)C(=O)N(C)[C@@H](C2CCC2)C(=O)N(C)[C@H](C(=O)N2CCCCC2)CC(=O)N1C [PP3131]	2.8	A (a compound having 10 or more and less than 20 is denoted as A)	A (a compound having 10 or more and less than 20 is denoted as A)	157						
CC[C@H](C)[C@@H]1NC(=O)[C@H](CC(C)C)N(C)C(=O)C[C@@H](C(=O)N2CCOCC2)N(C)C(=O)[C@H](C2CCCC2)N(C)C(=O)C2(CCCC2)NC(=O)[C@@H]2CCCN2C(=O)[C@H](CCc2ccc(C(F)(F)F)c(Cl)c2)NC(=O)CN(C)C(=O)[C@H](Cc2ccc(OC)cc2)N2C/C=C\CC[C@@H](C2=O)N(C)C(=O)CN(C)C1=O [PP0609]				468	3.9				B (a compound having 3 or more and less than 10 is denoted as B)	B (a compound having 3 or more and less than 10 is denoted as B)
CCCN1C(=O)[C@@H]2CCN2C(=O)[C@@H]2CCN2C(=O)[C@H]([C@@H](C)CC)NC(=O)[C@H](CC(C)C)N(C)C(=O)C[C@@H](C(=O)N2CCOCC2)N(C)C(=O)[C@H](C2CCCC2)N(C)C(=O)C2(CCCC2)NC(=O)[C@@H]2CCCN2C(=O)[C@H](CCc2ccc(C(F)(F)F)c(Cl)c2)NC(=O)CN(C)C(=O)[C@@H]1Cc1ccc(C(F)(F)F)cc1 [PP0168] ([NMeL]I[Aze][Aze][NPrPhe(4-CF3)][Sar][hPhe(3-Cl-4-CF3)]P[Ac5c][NMeGly(cPent)][NMeD]-Morpholide; lactam N-11)	0.67	C (A compound having a KD ratio of 0.1 or more and less than 3 is denoted as C)	B (a compound having 3 or more and less than 10 is denoted as B)	26.6						
CCO[C@@H]1C[C@H]2C(=O)NC3(CCC3)C(=O)N(C)[C@@H](C3CCCC3)C(=O)N(C)[C@H](C(=O)N(C)C)CC(=O)N(C)[C@@H](CC)C(=O)N[C@@H]([C@@H](C)CC)C(=O)N(C)CC(=O)N(C)[C@H]3CCCCCN(C3=O)[C@@H](Cc3ccc4ccsc4c3)C(=O)N(C)CC(=O)N[C@@H](CCc3cc(F)c(C(F)(F)F)c(F)c3)C(=O)N2C1 [PP0910]		B (a compound having 3 or more and less than 10 is denoted as B)	B (a compound having 3 or more and less than 10 is denoted as B)	66.2				0.62		
